Test results published in patent US9468624B2, “Small molecule antagonists of bacterial quorum-sensing receptors” (priority 2008, dated 2016).

Experiments:
[1] = tested on: CviR-dependent violacein production; experiment: Violacein production in wild type C. violaceum, dose-response; assay type: cell-based; conditions: Chromobacterium violaceum, read-out: IC50 for inhibition of violacein production
Method: E. coli strains were grown overnight in LB medium with antibiotics at 37° C. and sub-cultured into fresh medium at a 1:100 dilution. Various AHL and antagonists were added at constant concentrations or titrated as stated. The gfp was measured on an Envision plate reader after 5 hours of growth at 37° C. C. violaceum strains were grown aerobically in 1 mL Nutrient Broth plus 1 mM tryptophan at 30° C. […] Cells were collected via centrifugation at 13000 rpm for 15 minutes. Pellets were resuspended in 1 mL of methanol and incubated at 42° C. for 1 hour. Samples were again collected via centrifugation at 13000 rpm for 5 minutes and analyzed for violacein by measuring optical density at 568 nm on a Beckman Coulter DU-800 spectrophotometer. For the dose-response analyses, all assays were performed in triplicate.
To determine if 4606-4237 inhibits violacein production specifically by interfering with CviR, 4606-4237 was tested for antagonism of CviR in the recombinant E. coli vioA-gfp assay. For these experiments, C6-HSL was held constant at 500 nM, while 4606-4237 was titrated from 1.3 nM to 100 μM (FIG. 3D). This concentration of native C6-HSL signal induces maximal gfp production in this heterologous assay system. Importantly, no C. violaceum components other than CviR are present in the recombinant E. coli assay strain. Thus, any inhibition occurring would be due to a specific interaction between the antagonist molecule 4606-4237 and CviR rather than an interaction of 4606-4237 with some unknown component required for violacein production in C. violaceum. […] Thus, 4606-4237 functions by disabling CviR-mediated activation of gene expression in both the C. violaceum in vivo violacein assay and the recombinant E. coli vioA-gfp assay.

[2] = tested on: C. violaceum killing of C. elegans; experiment: C. elegans life span assay following C. violaceum infection; assay type: in vivo, Caenorhabditis elegans; conditions: wild type C. violaceum, CL 20 μM; untreated two days
Method: Life Span Assays. C. elegans lifespan assays were completed with at least 100 wild type N2 worms for each condition. C. elegans eggs were harvested from a large population of gravid adults using a standard bleaching protocol (30 mL 5% bleach, 15 mL N KOH, 55 mL DH2O). Harvested eggs were placed on lawns of fresh E. coli OP50 and allowed to hatch and grow to the young adult (L4) stage before being moved onto lawns of C. violaceum. Worms were scored for survival each day and transferred to new C. violaceum lawns every two days until all worms had expired.
In the presence of the mutant strain, the median C. elegans lifespan is twelve days (FIG. 7A; DMSO control). Exogenous addition of the native autoinducer molecule, C6-HSL restored quorum sensing and complemented the cviI mutant's ability to kill C. elegans (median lifespan=4 days, FIG. 7A).

[3] = target: CviR (Chromobacterium violaceum, UniProt D3W065); assay type: binding; design: made in house; host or cells: E. coli BL21(DE3) pLysS, plasmid pET23b; conditions: for DNA binding of ligand-loaded CviR to vioA promoter: CviR 100-500 nM
Sequence of CviR (D3W065 1-265): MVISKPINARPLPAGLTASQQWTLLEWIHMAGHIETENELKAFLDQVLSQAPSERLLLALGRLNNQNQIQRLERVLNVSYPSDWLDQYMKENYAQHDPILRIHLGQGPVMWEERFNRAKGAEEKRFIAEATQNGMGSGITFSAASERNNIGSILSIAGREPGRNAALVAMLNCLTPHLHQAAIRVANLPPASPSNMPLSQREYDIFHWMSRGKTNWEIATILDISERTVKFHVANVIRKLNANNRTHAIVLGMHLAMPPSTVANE
Method: CviR Overexpression and Purification. CviR was overexpressed in BL21(DE3) pLysS by growing an overnight culture in LB supplemented with 100 μg/mL ampicillin and 10 μg/mL chloramphenicol. The culture was diluted 1:50 into fresh LB supplemented with 100 μg/mL ampicillin and 10 μg/mL chloramphenicol and grown shaking at 37° C. to an OD600 of 0.4. Various AHL or antagonist molecules were added to at 50 μM and incubated an additional 30 minutes at 30° C., after which expression was induced by the addition of 100 μM IPTG (isopropyl-β-D-thiogalactopyranoside) for 4 hours at 30° C. Cells were harvested by centrifugation and lysed in 20 mM imidazole pH 8.0, 100 mM NaCl, 0.5 mM EDTA and 5% glycerol via a Micro-fluidizer processor (MicroFluidics). Protein was purified via ion-exchange using a Hitrap Heparin HP column (GE Healthcare). Protein was eluted with a 100 mM to 1 M NaCl gradient. Fractions containing CviR were pooled and diluted in lysis buffer devoid of NaCl, and then further purified by cation exchange chromatography using a Hitrap SP HP column (GE Healthcare). CviR was eluted with a 100 mM to 1 M NaCl gradient.
DNA probes for gel mobility shift analyses were generated by standard polymerase chain reaction using primers with a 5′ 6-FAM (fluorescein) tag (Integrated DNA Technologies). The target probe contained about 100 nucleotides of the vioA promoter. The control probe contained 300 bases of vioB intergenic DNA. 37 ng of each probe was incubated for 20 minutes at room temperature with the indicated amounts of CviR (0, 0.1, 0.2, 0.3, 0.4 and 0.5 μM) and 1 μg/μL poly-dIdC in 1× Gel shift buffer (40 mM Tris HCl pH 8.0, 100 mM KCL, 2 mM EDTA, 2 mM DTT, 10% glycerol, 200 μg/mL BSA). Gel mobility shifts were performed on 6% TGE-polyacrylamide gels and visualized using a Storm 860 Imaging System (Molecular Dynamics).
To further investigate the mechanism underlying antagonism of the CviR receptor, an examination was undertaken of whether the soluble CviR antagonist complexes were incapable of binding DNA, and thus unable to activate transcription. […] The CviR protein was also purified in complex with each of the synthetic antagonist molecules, 4606-4237, CTL, and CL. Performance of DNA gel mobility shift analyses enabled assessment of the binding of each of these purified, loaded protein complexes to the vioA promoter.
The reciprocal experiment tested whether C6-HSL could replace CL bound to CviR.

`O=C(CCCOc1ccc(Cl)cc1)NC1CCOC1=O` (stereo not drawn) [CL, chlorolactone] was tested. Which IC50 [1] did it give?
The IC50 was 295 nM.

What about the C. elegans lifespan [2] of the same molecule?
The C. elegans lifespan was “seven”.

And the “ligand exchange on loaded CviR, effect on DNA binding” value ([3]; 500 nM loaded CviR, competing ligand 0-10 μM)?
Its value is “DNA binding decreased in a dose dependent manner”.

What about the “DNA binding of ligand-loaded CviR to vioA promoter” value [3] of the same molecule?
Its value is “no ability to bind DNA”.

What does the source list for `O=C(CCCOc1ccc(Cl)cc1)NC1CCSC1=O` (stereo not drawn) [CTL, Chloro-thiolactone]?
IC50 [1]: 723 nM; DNA binding of ligand-loaded CviR to vioA promoter [3]: no ability to bind DNA
